These results are taken from US6784175B2, “Use of substituted 1-amino-5-phenylpentane-3-ol and/or 1-amino-6-phenylhexane-3-ol compounds as medicaments” (Gruenenthal GmbH, priority 2000, dated 2004).

Counter-ions that a name gives are not always drawn.

For data set [1], the system named is (+)-MK801 binding site of the ionotropic NMDA receptor. In words: (3H)-(+)-MK801 receptor bonding test on rat cerebral membrane homogenates. Particulars: 1 nmol/l (3H)-(+)-MK801, rat brain membrane homogenate; for Percentage inhibition of (3H)-(+)-MK801 binding at 10 μM: 10 μmol/l compound, triple determinations; for Ki: calculated from IC50 by Cheng-Prusoff equation. The method, then: Research to determine the NMDA antagonistic effect of each compound in general formula I was carried out on cerebral membrane homogenates (homogenate of rat brain without cerebellum, pons and medulla oblongata taken from male Wistar rats (Charles River, Sulzfeld, Germany)).
For this purpose, after separating the cerebellum, pons and medulla oblongata, freshly prepared rat brains were macerated in 50 mmol/l of tris/HCl (pH 7.7) with a Polytron homogeniser (model PT3000, Kinematika AG, Littau, Switzerland) at 6000 revolutions per minute (rpm) for 1 minute with ice cooling and centrifuged for 15 minutes at 4° C. and 60,000 g. After decanting and discarding the supernatant, again placing in 50 mmol/l of tris/HCl (pH 7.7) and macerating the membrane pellet with a homogeniser at 2000 rpm for 1 minute, it was centrifuged again for 15 minutes at 4° C. and 60,000 g. The supernatant was again discarding and the membrane pellet homogenised (2000 rpm for 1 minute) in 50 mmol/l of tris/HCl (pH 7.7) and frozen in aliquots at −70° C.
For the receptor bonding test, each aliquot was defrosted and then centrifuged for 15 minutes at 4° C. and 60,000 g. After decanting and discarding the supernatant, the membrane pellet was taken up with bonding test buffer and homogenised (2000 rpm for 1 minute). The bonding test buffer was 5 mmol/l tris/HCl (pH 7.7) supplemented with 30 μmol/l of glycine and 100 μmol/l of glutamic acid.
1 nmol/l of (^3H)-(+)-MK801 ((5R, 10S)-(+)-5-methyl-10,11-dihydro-5H-dibenzo(a,d)cycloheptane-5,10-imine was used as a radioactively marked ligand (NET-972, NEN, Cologne Germany). The proportion of unspecific bonding was determined in the presence of 10 μmol/l of non-radioactively marked (+)-MK801 (RBI/Sigma, Deisenhofen, Germany). In further batches, each of the compounds of general formula I were added in series of concentrations and the displacement of the radioactive ligand out of its specific bond to the NMDA receptor determined. All the batches were subjected to triple determinations. The batches were each incubated for 40 minutes at 25° C. in a water bath and then harvested for determination of the radioactive ligand bound to the cerebral membrane homogenate by means of filtration through glass-fibre filters (GF/B) (Whatman GF/B, Hassel, Munich, Germany). The radioactivity retained by the glass-fibre filter discs was measured in a β counter (Packard TRI-CARB Liquid Scintillation Analyser 2000CA, Packard Instrument, Meriden, Conn. 06450, USA) after adding a scintillator (“Ready Protein” scintillator, Beckmann Coulter GmhH, Krefeld, Germany).
The percentage inhibition of the specific bonding of the ligand (^3H)-(+)-MK801 in the presence of 10 μmol/l of each compound of general formula I resulting from the triple batches is used as a measure of the affinity of the compound for the (+)-MK801 binding site of the ionotropic NMDA receptor. From batches with concentration series of these compounds of general formula I, the IC50 values (concentration of substituted compounds with 50% displacement of radioactive ligand out of its specific bond) were calculated in accordance with the law of mass action using non-linear regression. From these IC50 values, the Kj values were calculated in accordance with the Cheng-Prusoff equation (Y. Cheng, W. H. Prusoff, 1973, Biochem. Pharmacol., 22, pp 3099-3108).

In the case of `Cc1ccccc1C(C1CCCCC1(O)CCc1ccccc1Cl)N(C)C.Cl` (centres unmarked) [Example 15, 1-[2-(2-chlorophenyl)ethyl]-2-(dimethylamino-o-tolylmethyl)cyclohexanol, hydrochloride], the melting point was in the range of 190 to 194 °C. Also, the “Percentage inhibition of (3H)-(+)-MK801 binding at 10 μM” value (“Percentage inhibition” for short) in data set [1] worked out at 100%. Besides, the Ki in data set [1] (hydrochloride) is 700 nM.
For `CN(C)C(c1ccccc1Cl)C1CCCCC1(O)CCc1cccc(F)c1.Cl` (centres unmarked) [Example 11, 2-[(2-chlorophenyl)dimethylaminomethyl]-1-[2-(3-fluorophenyl)ethyl]cyclohexanol, hydrochloride], the melting point is 120 to 126 °C. Further, in data set [1], the “Percentage inhibition” value was determined as 93% and the Ki was 2100 nM.
For `CN(C)C(c1ccccc1)C1CCCCC1(O)CCCc1ccccc1.Cl` (centres unmarked) [Example 6, 2-(dimethylaminophenylmethyl)-1-(3-phenylpropyl)cyclohexanol, hydrochloride], in that order: 90 °C, 74% and 2600 nM.
For `CN(C)C(c1ccccc1F)C1CCCCC1(O)CCc1ccccc1.Cl` (centres unmarked) [Example 8, 2-[dimethylamino-(2-fluorophenyl)methyl]-1-phenethylcyclohexanol, hydrochloride], in that order: 172 to 174 °C, 91% and 1600 nM.
`Cl.OC1(CCc2ccccc2)CCCCC1C(c1ccccc1)N1CCCCC1` (centres unmarked) [Example 14, 1-phenethyl-2-(phenylpiperidine-1-yl-methyl)cyclohexanol, hydrochloride] returned a melting point of 127 °C. Moreover, in data set [1], the “Percentage inhibition” value is recorded as 88% and the Ki was 2800 nM.
With `CN(C)C(c1ccccc1)C1CCCCC1(O)CCc1cccc(Cl)c1.Cl` (centres unmarked) [Example 13, 1-[2-(3-chlorophenyl)ethyl]-2-(dimethylaminophenylmethyl)cyclohexanol, hydrochloride], the melting point was 95 °C. Besides, in data set [1], the “Percentage inhibition” value worked out at 61% and the Ki was 3100 nM.
For `COc1cccc(C(C2CCCCC2(O)CCc2ccccc2)N(C)C)c1.Cl` (centres unmarked) [Example 4, 2-[dimethylamino-(3-methoxyphenyl)methyl]-1-phenethylcyclohexanol, hydrochloride], in that order: 90 °C, 51% and 6200 nM.
In the case of `CN(C)C(c1ccccc1F)C1CCCCC1(O)CCc1ccccc1Cl.Cl` (centres unmarked) [Example 19, 1-[2-(2-chlorophenyl)ethyl]-2-(dimethylamino-(2-fluorophenyl)methyl]cyclohexanol, hydrochloride], the melting point was 213 °C. Further, in data set [1], the “Percentage inhibition” value came out at 102% and the inhibitory constant (Ki) was 800 nM.
For `Cc1ccccc1C(C1CCCCC1(O)CCc1ccccc1Cl)N1CCCC1.Cl` (centres unmarked) [Example 23, 1-[2-(2-chlorophenyl)ethyl]-2-(pyrrolidine-1-yl-o-tolylmethyl)cyclohexanol, hydrochloride], in that order: 155 °C, 101% and 400 nM.
As to `CN(C)C(c1ccccc1Cl)C1CCCCC1(O)CCCc1ccccc1.Cl` (centres unmarked) [Example 36, 2-[(2-chlorophenyl)dimethylaminomethyl]-1-(3-phenylpropyl)cyclohexanol, hydrochloride], in data set [1], the “Percentage inhibition” value came out at 85% and the Ki was 1900 nM.
Take `CN(C)C(c1ccccc1)C1CCCCC1(O)CCCc1ccccc1.Cl` (single isomer, unassigned; (-)) [Example 50, (−)-2-(dimethylaminophenylmethyl)1-(3-phenylpropyl)cyclohexanol, hydrochloride]: the “Percentage inhibition” value in data set [1] (hydrochloride, 10 µM) came to 87%. The Ki in data set [1] (hydrochloride) is 600 nM.
For `Cc1ccccc1C(C1CCCCC1(O)CCc1ccccc1Cl)N(C)C` (single isomer, unassigned; (-)) [Example 48, (−)-15-1-[2-(2-chlorophenyl)ethyl]-2-(dimethylamino-o-tolylmethylcyclohexanol), hydrochloride], in that order: 99% and 400 nM.
In the case of `Cc1ccccc1C(C1CCCCC1(O)CCc1ccccc1Cl)N1CCOCC1.Cl` (centres unmarked) [Example 24, 1-[2-(2-chlorophenyl)ethyl]-2-(morpholine-4-yl-o-tolylmethyl)cyclohexanol, hydrochloride], in data set [1], the “Percentage inhibition” value turned out to be 48% and the inhibition constant Ki is 3700 nM.
For `Cc1ccccc1C(C1CCCCC1(O)CCc1ccccc1F)N1CCCC1.Cl` (centres unmarked) [Example 31, 1-[2-(2-fluorophenyl)ethyl]-2-(pyrrolidine-1-yl-o-tolylmethyl)cyclohexanol, hydrochloride], in that order: 99% and 100 nM.
For `CN(C)C(c1ccccc1Cl)C1CCCCC1(O)CCc1ccccc1Cl.Cl` (centres unmarked) [Example 33, 2-[(2-chlorophenyl)dimethylaminomethyl]-1-[2-(2-chlorophenyl)ethyl]cyclohexanol, hydrochloride], in that order: 93% and 600 nM.
For `Cc1ccccc1C(C1CCCCC1(O)CCc1ccc(F)cc1)N(C)C.Cl` (centres unmarked) [Example 18, 2-(dimethylamino-o-tolylmethyl)-1-[2-(4-fluorophenyl)ethyl]cyclohexanol, hydrochloride], in that order: 54% and 6100 nM.
Take `CN(C)C(c1ccccc1Br)C1CCCCC1(O)CCc1ccccc1Cl.Cl` (centres unmarked) [Example 32, 2-[(2-bromophenyl)dimethylaminomethyl]-1-[2-(2-chlorophenyl)ethyl]cyclohexanol, hydrochloride]: in data set [1], the “Percentage inhibition” value was 96% and the Ki is 700 nM.
Take `COc1ccccc1C(C1CCCCC1(O)CCc1ccccc1F)N(C)C.Cl` (centres unmarked) [Example 28, 2-[dimethylamino-(2-methoxyphenyl)methyl]-1-[2-(2-fluorophenyl)ethyl]cyclohexanol, hydrochloride]: in data set [1], the “Percentage inhibition” value is given as 82% and the inhibition constant Ki was 2500 nM.
For `CN(C)C(c1ccccc1C(F)(F)F)C1CCCCC1(O)CCc1ccccc1Cl.Cl` (centres unmarked) [Example 46, 1-[2-(2-chlorophenyl)ethyl]-2-[dimethylamino-(2-trifluoromethylphenyl)methyl]cyclohexanol, hydrochloride], in that order: 79% and 1900 nM.
Turning to `Cc1ccccc1CCC1(O)CCCCC1C(c1ccccc1Cl)N(C)C.Cl` (centres unmarked) [Example 35, 2-[(2-chlorophenyl)dimethylaminomethyl]-1-(2-o-tolylethyl)cyclohexanol, hydrochloride], in data set [1], the “Percentage inhibition” value is given as 93% and the Ki is 1800 nM.
For `CN(C)C(c1ccccc1F)C1CCCCC1(O)CCc1ccccc1F.Cl` (centres unmarked) [Example 29, 2-[dimethylamino-(2-fluorophenyl)methyl]-1-[2-(2-fluorophenyl)ethyl]cyclohexanol, hydrochloride], in that order: 104% and 300 nM.
For `Cc1ccccc1CCC1(O)CCCCC1C(c1ccccc1)N(C)C.Cl` (centres unmarked) [Example 37, 2-(dimethylaminophenylmethyl)-1-(2-o-tolylethyl)cyclohexanol, hydrochloride], in that order: 77% and 1800 nM.
